Source: patent US20250243196A1, “CITRON KINASE INHIBITORS” (The Cleveland Clinic Foundation, priority 2021, published 2025)

Tests used:
Test in all cases: KinaseProfiler panel
Format in all cases: biochemical
Conditions in all cases: activity remaining
[1] = target: PI3KC2g(h) (Homo sapiens (Human), UniProt O75747)
[2] = target: AMPKα1(h) (Homo sapiens (Human), UniProt Q13131); set-up: dose or concentration left out as unconfirmed
[3] = target: MYLK2(h) (Homo sapiens (Human), UniProt Q9H1R3); set-up: dose or concentration left out as unconfirmed
[4] = target: CDK13/cyclinK(h) (Homo sapiens (Human), UniProt Q14004); set-up: dose or concentration left out as unconfirmed
Chain of CDK13/cyclinK(h) (Q14004 whole entry, looked up): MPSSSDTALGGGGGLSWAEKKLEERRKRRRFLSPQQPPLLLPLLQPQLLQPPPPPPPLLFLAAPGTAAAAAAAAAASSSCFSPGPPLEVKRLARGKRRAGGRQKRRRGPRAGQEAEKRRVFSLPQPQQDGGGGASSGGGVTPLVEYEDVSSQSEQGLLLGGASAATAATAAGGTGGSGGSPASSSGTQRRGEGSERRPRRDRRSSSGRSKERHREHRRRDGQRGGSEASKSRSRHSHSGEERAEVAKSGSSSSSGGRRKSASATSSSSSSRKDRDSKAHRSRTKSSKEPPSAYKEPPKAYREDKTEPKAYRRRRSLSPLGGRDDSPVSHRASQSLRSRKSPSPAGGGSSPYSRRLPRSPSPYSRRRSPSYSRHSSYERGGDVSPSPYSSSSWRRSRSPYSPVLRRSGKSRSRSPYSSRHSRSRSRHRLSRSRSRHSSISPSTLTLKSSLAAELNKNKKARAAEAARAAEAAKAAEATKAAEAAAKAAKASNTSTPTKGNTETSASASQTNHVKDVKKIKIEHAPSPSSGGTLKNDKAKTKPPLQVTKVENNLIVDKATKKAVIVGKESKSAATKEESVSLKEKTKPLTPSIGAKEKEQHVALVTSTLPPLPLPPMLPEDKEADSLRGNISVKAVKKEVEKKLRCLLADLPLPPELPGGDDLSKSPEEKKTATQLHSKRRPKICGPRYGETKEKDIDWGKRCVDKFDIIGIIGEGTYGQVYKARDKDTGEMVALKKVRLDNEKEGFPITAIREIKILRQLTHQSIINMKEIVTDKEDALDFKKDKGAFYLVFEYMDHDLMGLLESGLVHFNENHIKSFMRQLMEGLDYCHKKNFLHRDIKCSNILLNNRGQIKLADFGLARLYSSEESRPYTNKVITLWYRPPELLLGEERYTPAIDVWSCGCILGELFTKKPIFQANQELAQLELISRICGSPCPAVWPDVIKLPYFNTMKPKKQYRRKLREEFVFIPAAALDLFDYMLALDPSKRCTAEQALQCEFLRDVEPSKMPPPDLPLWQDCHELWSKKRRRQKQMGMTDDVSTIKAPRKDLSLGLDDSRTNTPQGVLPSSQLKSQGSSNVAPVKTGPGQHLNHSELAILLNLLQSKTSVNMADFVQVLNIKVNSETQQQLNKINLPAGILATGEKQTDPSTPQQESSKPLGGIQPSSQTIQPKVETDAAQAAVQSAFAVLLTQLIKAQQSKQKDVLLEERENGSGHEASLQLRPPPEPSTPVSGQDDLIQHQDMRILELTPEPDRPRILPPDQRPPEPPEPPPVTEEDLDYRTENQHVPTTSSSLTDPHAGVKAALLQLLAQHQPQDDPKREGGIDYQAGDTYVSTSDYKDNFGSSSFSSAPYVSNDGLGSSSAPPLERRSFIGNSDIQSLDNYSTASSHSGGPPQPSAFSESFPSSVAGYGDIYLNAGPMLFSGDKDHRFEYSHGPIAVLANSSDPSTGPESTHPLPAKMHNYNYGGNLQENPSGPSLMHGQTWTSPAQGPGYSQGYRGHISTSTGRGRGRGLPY
Chain of CDK13/cyclinK(h) (O75909 whole entry partner, looked up): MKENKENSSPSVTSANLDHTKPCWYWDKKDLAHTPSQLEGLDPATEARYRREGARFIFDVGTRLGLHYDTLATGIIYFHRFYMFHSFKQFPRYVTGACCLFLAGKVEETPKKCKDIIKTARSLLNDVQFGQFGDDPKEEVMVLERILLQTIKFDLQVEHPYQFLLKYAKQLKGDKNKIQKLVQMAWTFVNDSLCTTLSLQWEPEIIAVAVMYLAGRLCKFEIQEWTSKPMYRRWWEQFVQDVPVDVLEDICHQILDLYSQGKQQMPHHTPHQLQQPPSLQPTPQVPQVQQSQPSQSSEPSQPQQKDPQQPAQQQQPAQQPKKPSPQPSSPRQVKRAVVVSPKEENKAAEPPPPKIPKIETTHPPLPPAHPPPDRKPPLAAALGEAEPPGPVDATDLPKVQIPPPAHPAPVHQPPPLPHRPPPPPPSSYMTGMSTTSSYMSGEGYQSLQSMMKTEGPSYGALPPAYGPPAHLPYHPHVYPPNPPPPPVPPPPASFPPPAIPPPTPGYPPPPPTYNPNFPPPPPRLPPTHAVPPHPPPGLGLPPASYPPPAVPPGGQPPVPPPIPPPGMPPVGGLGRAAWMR

[5] = target: HIPK2(h) (Homo sapiens (Human), UniProt Q9H2X6); set-up: dose or concentration left out as unconfirmed
[6] = target: EGFR(h) (Homo sapiens (Human), UniProt P00533); set-up: dose or concentration left out as unconfirmed
[7] = target: ATR/ATRIP(h) (Homo sapiens (Human), UniProt Q13535); set-up: dose or concentration left out as unconfirmed
[8] = target: GCK(h) (Homo sapiens (Human), UniProt Q12851); set-up: dose or concentration left out as unconfirmed
[9] = target: TBK1(h) (Homo sapiens (Human), UniProt Q9UHD2)
[10] = target: SLK(h) (Homo sapiens (Human), UniProt Q9H2G2); set-up: dose or concentration left out as unconfirmed
[11] = target: CDK6/cyclinD3(h) (Homo sapiens (Human), UniProt Q00534); set-up: dose or concentration left out as unconfirmed
[12] = target: FGFR3(h) (Homo sapiens (Human), UniProt P22607); set-up: dose or concentration left out as unconfirmed
[13] = target: MINK(h) (Homo sapiens (Human), UniProt Q8N4C8); set-up: dose or concentration left out as unconfirmed
[14] = target: LIMK2(h) (Homo sapiens (Human), UniProt P53671); set-up: dose or concentration left out as unconfirmed
[15] = target: CLIK1(h) (Homo sapiens (Human), UniProt Q8TDR2); set-up: dose or concentration left out as unconfirmed
Chain of CLIK1(h) (Q8TDR2 whole entry): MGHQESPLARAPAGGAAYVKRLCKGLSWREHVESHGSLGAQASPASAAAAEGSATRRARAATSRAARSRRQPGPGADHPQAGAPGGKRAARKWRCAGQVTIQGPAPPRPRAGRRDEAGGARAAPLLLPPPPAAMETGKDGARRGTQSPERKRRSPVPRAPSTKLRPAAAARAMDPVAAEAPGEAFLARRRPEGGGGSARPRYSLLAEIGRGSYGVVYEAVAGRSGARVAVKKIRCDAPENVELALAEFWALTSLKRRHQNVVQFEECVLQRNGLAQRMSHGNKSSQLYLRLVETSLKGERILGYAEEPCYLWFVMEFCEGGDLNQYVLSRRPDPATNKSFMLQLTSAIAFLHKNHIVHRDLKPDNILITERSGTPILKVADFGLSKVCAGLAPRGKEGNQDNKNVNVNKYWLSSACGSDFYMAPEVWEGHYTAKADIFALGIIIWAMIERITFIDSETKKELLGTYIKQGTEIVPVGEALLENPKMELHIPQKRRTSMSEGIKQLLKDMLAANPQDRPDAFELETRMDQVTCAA

[16] = target: STK25(h) (Homo sapiens (Human), UniProt O00506); set-up: dose or concentration left out as unconfirmed
Chain of STK25(h) (O00506 whole entry): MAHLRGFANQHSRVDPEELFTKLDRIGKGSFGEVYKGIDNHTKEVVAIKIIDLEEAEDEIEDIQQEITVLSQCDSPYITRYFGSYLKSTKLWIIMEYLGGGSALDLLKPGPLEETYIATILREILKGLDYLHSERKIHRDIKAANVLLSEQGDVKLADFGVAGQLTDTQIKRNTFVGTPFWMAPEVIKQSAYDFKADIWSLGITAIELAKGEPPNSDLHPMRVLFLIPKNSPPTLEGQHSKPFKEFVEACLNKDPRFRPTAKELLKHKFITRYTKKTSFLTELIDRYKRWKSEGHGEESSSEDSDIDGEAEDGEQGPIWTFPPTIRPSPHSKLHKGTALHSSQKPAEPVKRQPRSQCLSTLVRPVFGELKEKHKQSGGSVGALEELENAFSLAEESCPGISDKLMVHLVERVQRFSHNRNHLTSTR

[17] = target: Flt4(h) (Homo sapiens (Human), UniProt P35916); set-up: dose or concentration left out as unconfirmed

Chain of PI3KC2g(h) (O75747 whole entry): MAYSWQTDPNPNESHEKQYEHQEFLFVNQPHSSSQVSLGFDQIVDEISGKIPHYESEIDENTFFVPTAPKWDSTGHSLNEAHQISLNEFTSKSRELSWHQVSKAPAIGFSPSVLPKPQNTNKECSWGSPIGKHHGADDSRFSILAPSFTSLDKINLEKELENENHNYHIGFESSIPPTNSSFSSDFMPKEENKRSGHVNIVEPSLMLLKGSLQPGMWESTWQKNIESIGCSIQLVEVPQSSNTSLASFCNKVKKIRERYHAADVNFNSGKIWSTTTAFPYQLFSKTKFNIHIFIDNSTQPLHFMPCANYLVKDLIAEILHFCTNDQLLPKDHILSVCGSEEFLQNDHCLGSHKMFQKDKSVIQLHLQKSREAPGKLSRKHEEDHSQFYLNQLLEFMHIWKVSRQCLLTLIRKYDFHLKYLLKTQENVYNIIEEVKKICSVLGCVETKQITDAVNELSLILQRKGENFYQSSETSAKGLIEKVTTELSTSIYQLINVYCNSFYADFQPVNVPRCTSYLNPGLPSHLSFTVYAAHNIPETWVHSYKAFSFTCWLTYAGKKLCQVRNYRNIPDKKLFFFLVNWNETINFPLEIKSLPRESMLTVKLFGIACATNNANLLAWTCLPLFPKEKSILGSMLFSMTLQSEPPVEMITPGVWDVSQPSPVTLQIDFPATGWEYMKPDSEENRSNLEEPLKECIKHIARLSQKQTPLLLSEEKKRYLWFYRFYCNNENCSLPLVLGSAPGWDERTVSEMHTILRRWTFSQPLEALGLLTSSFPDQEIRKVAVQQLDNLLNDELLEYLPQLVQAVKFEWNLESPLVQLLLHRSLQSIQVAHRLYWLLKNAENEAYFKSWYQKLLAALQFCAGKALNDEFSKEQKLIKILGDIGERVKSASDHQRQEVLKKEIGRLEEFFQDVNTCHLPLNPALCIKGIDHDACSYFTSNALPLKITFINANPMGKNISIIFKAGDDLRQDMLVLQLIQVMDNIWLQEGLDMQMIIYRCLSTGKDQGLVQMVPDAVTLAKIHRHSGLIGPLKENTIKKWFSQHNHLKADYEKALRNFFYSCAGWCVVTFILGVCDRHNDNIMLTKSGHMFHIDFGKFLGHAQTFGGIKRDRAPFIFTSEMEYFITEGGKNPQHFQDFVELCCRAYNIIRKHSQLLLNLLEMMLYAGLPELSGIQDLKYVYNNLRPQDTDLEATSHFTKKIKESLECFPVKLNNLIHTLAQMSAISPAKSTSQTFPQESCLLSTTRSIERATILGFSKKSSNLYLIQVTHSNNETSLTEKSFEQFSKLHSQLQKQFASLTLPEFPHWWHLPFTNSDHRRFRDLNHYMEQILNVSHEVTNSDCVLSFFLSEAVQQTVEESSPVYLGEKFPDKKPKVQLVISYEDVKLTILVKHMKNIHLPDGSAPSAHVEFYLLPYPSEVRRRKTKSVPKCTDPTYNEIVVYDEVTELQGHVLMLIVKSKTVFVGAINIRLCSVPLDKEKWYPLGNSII

SMILES: Cc1cc2c(-c3ccc(NC(=O)[C@H](N)CC(C)(C)C)cc3C)ccnc2[nH]1 [Compound F-90, (2R)-2-Amino-4,4-dimethyl-N-[3-methyl-4-(2-methyl-1H-pyrrolo[2,3-b]pyridin-4-yl)phenyl]pentanamide]
- % Activity [1]: 103%
- % Activity [2]: 120%
- % Activity [3]: 76%
- % Activity [4]: 99%
- % Activity [5]: 105%
- % Activity [6]: 107%
- % Activity [7]: 110%
- % Activity [8]: 118%
- % Activity [9]: 100%
- % Activity [10]: 109%
- % Activity [11]: 90%
- % Activity [12]: 86%
- % Activity [13]: 89%
- % Activity [14]: 72%
- % Activity [15]: 97%
- % Activity [16]: 92%
- % Activity [17]: 96%
